{"source": "patent US20250288681A1", "about": "“SOLID COMPOSITIONS COMPRISING A GLUCOKINASE ACTIVATOR AND METHODS OF MAKING AND USING THE SAME” (vTv Therapeutics LLC, priority 2013, published 2025)", "experiment": "stability of solid form (statement only)", "format": "physicochemical", "details": "qualitative statement, no data"}
{"smiles": "CCCO[C@H]1CC[C@H](N(C(=O)Nc2ncc(SCC(=O)O)s2)C2CCCCC2)CC1", "note": "[Form A, {2-[3-cyclohexyl-3-(trans-4-propoxy-cyclohexyl)-ureido]-thiazol-5-ylsulfanyl}-acetic acid]", "values": [{"measurement": "stability", "value": "particularly stable"}]}
{"smiles": "CCCO[C@H]1CC[C@H](N(C(=O)Nc2ncc(SCC(=O)O)s2)C2CCCCC2)CC1", "note": "[UD1-FA, {2-[3-cyclohexyl-3-(trans-4-propoxy-cyclohexyl)-ureido]-thiazol-5-ylsulfanyl}-acetic acid]", "values": [{"measurement": "stability", "value": "greater stability relative to some of its pharmaceutically acceptable salts"}]}
